Results published in BigSolDB 2.1.

CC(=O)N[C@@H](C=O)[C@@H](O)[C@H](O)[C@H](O)CO
solubility (mole fraction)
Settings	283.15 K	288.15 K	293.15 K	298.15 K	303.15 K	308.15 K	313.15 K
in acetone	4.1e-05	7.2e-05	8.7e-05	0.000115	0.000161	0.000193	0.000241
in ethanol	0.000166	0.000223	0.000242	0.000268	0.000313	0.000342	0.000382
in methanol	0.000634	0.0007	0.000808	0.000907	0.00109	0.00136	0.00157
in n-propanol	7.3e-05	8.5e-05	0.000115	0.000166	0.000241	0.000324	0.000392
in water	0.0219	0.0236	0.0257	0.028	0.0302	0.0324	0.0344
